{
  "source": "patent US10071082B2",
  "about": "“Antimicrobial agents” (Rutgers, The State University of New Jersey, priority 2013, dated 2018)",
  "key": {"MSSA": {"tested_on": "MSSA", "test": "Test A antibacterial assay, broth microdilution MIC", "type": "cell-based", "details": "Staphylococcus aureus, read-out: MIC MSSA", "method": "(§1) Antibacterial activity can be determined as per Clinical and Laboratory Standards Institute (CLSI) guidelines using a broth microdilution assay in which log-phase bacteria are grown at 37° C. in appropriate medium containing two-fold serial dilutions of a compound to yield final concentrations ranging from 256 to 0.06 μg/mL. For determination of minimal inhibitory concentration (MIC) values, bacterial growth is monitored after 24 to 48 hours by measuring optical density at 600 nm."}, "MRSA": {"tested_on": "MRSA", "test": "Test A antibacterial assay, broth microdilution MIC", "type": "cell-based", "details": "Staphylococcus aureus, read-out: MIC MRSA", "method": "as §1"}, "[1]": {"tested_on": "S. aureus ATCC 19636 (MSSA)", "test": "Test D in vivo efficacy, mouse peritonitis model of systemic infection", "details": "mice"}, "[2]": {"tested_on": "S. aureus ATCC 43300 (MRSA)", "test": "Test D in vivo efficacy, mouse peritonitis model of systemic infection", "details": "mice, p.o."}},
  "data": [
    {"molecule": "CN1CCC(C(=O)NC(=O)c2c(F)ccc(OCc3nc4cc(Cl)cnc4s3)c2F)CC1", "note": "[Example 17]", "values": [
      {"measurement": "MIC", "setting": "MSSA", "result": 2, "unit": "µg/mL"},
      {"measurement": "MIC", "setting": "MRSA", "result": 4, "unit": "µg/mL"},
      {"measurement": "Survival (%)", "setting": "[1]; i.v., 1x, total dose 0.6 mg/mouse, first dose immediately prior to infection, 24 Hrs", "result": 0, "unit": "%"},
      {"measurement": "Survival (%)", "setting": "[1]; i.v., 1x, total dose 0.6 mg/mouse, first dose immediately prior to infection, 48 Hrs", "result": 0, "unit": "%"},
      {"measurement": "Survival (%)", "setting": "[1]; i.v., 1x, total dose 0.6 mg/mouse, first dose immediately prior to infection, 72 Hrs", "result": 0, "unit": "%"},
      {"measurement": "Survival (%)", "setting": "[1]; i.v., 2x, total dose 1.2 mg/mouse, first dose immediately prior to infection, 24 Hrs", "result": 0, "unit": "%"},
      {"measurement": "Survival (%)", "setting": "[1]; i.v., 2x, total dose 1.2 mg/mouse, first dose immediately prior to infection, 48 Hrs", "result": 0, "unit": "%"},
      {"measurement": "Survival (%)", "setting": "[1]; i.v., 2x, total dose 1.2 mg/mouse, first dose immediately prior to infection, 72 Hrs", "result": 0, "unit": "%"},
      {"measurement": "Survival (%)", "setting": "[1]; i.v., 3x, total dose 1.8 mg/mouse, first dose immediately prior to infection, 24 Hrs", "result": 33.3, "unit": "%"},
      {"measurement": "Survival (%)", "setting": "[1]; i.v., 3x, total dose 1.8 mg/mouse, first dose immediately prior to infection, 48 Hrs", "result": 33.3, "unit": "%"},
      {"measurement": "Survival (%)", "setting": "[1]; i.v., 3x, total dose 1.8 mg/mouse, first dose immediately prior to infection, 72 Hrs", "result": 33.3, "unit": "%"},
      {"measurement": "Survival (%)", "setting": "[1]; i.v., 4x, total dose 2.4 mg/mouse, first dose immediately prior to infection, 24 Hrs", "result": 83.3, "unit": "%"},
      {"measurement": "Survival (%)", "setting": "[1]; i.v., 4x, total dose 2.4 mg/mouse, first dose immediately prior to infection, 48 Hrs", "result": 83.3, "unit": "%"},
      {"measurement": "Survival (%)", "setting": "[1]; i.v., 4x, total dose 2.4 mg/mouse, first dose immediately prior to infection, 72 Hrs", "result": 83.3, "unit": "%"},
      {"measurement": "Survival (%)", "setting": "[1]; p.o., 1x, total dose 0.8 mg/mouse, first dose 5 minutes prior to infection, 24 Hrs", "result": 0, "unit": "%"},
      {"measurement": "Survival (%)", "setting": "[1]; p.o., 1x, total dose 0.8 mg/mouse, first dose 5 minutes prior to infection, 48 Hrs", "result": 0, "unit": "%"},
      {"measurement": "Survival (%)", "setting": "[1]; p.o., 1x, total dose 0.8 mg/mouse, first dose 5 minutes prior to infection, 72 Hrs", "result": 0, "unit": "%"},
      {"measurement": "Survival (%)", "setting": "[1]; p.o., 2x, total dose 1.6 mg/mouse, first dose 5 minutes prior to infection, 24 Hrs", "result": 0, "unit": "%"},
      {"measurement": "Survival (%)", "setting": "[1]; p.o., 2x, total dose 1.6 mg/mouse, first dose 5 minutes prior to infection, 48 Hrs", "result": 0, "unit": "%"},
      {"measurement": "Survival (%)", "setting": "[1]; p.o., 2x, total dose 1.6 mg/mouse, first dose 5 minutes prior to infection, 72 Hrs", "result": 0, "unit": "%"},
      {"measurement": "Survival (%)", "setting": "[1]; p.o., 4x, total dose 3.2 mg/mouse, 24 Hrs", "result": 83.3, "unit": "%"},
      {"measurement": "Survival (%)", "setting": "[1]; p.o., 4x, total dose 3.2 mg/mouse, 48 Hrs", "result": 83.3, "unit": "%"},
      {"measurement": "Survival (%)", "setting": "[1]; p.o., 4x, total dose 3.2 mg/mouse, 72 Hrs", "result": 83.3, "unit": "%"},
      {"measurement": "Survival (%)", "setting": "[1]; p.o., 4x, total dose 3.2 mg/mouse, first dose 5 minutes prior to infection, 24 Hrs", "result": 100, "unit": "%"},
      {"measurement": "Survival (%)", "setting": "[1]; p.o., 4x, total dose 3.2 mg/mouse, first dose 5 minutes prior to infection, 48 Hrs", "result": 100, "unit": "%"},
      {"measurement": "Survival (%)", "setting": "[1]; p.o., 4x, total dose 3.2 mg/mouse, first dose 5 minutes prior to infection, 72 Hrs", "result": 100, "unit": "%"},
      {"measurement": "Survival (%)", "setting": "[2]; 3x, total dose 2.4 mg/mouse, first dose 5 minutes prior to infection, 24 Hrs", "result": 66.7, "unit": "%"},
      {"measurement": "Survival (%)", "setting": "[2]; 3x, total dose 2.4 mg/mouse, first dose 5 minutes prior to infection, 48 Hrs", "result": 16.7, "unit": "%"},
      {"measurement": "Survival (%)", "setting": "[2]; 3x, total dose 2.4 mg/mouse, first dose 5 minutes prior to infection, 72 Hrs", "result": 16.7, "unit": "%"},
      {"measurement": "Survival (%)", "setting": "[2]; 6x, total dose 4.8 mg/mouse, 24 Hrs", "result": 83.3, "unit": "%"},
      {"measurement": "Survival (%)", "setting": "[2]; 6x, total dose 4.8 mg/mouse, 48 Hrs", "result": 50, "unit": "%"},
      {"measurement": "Survival (%)", "setting": "[2]; 6x, total dose 4.8 mg/mouse, 72 Hrs", "result": 50, "unit": "%"},
      {"measurement": "Survival (%)", "setting": "[2]; 6x, total dose 4.8 mg/mouse, first dose 5 minutes prior to infection, 24 Hrs", "result": 100, "unit": "%"},
      {"measurement": "Survival (%)", "setting": "[2]; 6x, total dose 4.8 mg/mouse, first dose 5 minutes prior to infection, 48 Hrs", "result": 100, "unit": "%"},
      {"measurement": "Survival (%)", "setting": "[2]; 6x, total dose 4.8 mg/mouse, first dose 5 minutes prior to infection, 72 Hrs", "result": 100, "unit": "%"},
      {"measurement": "Survival (%)", "setting": "[2]; 6x, total dose 4.8 mg/mouse, first dose 10 minutes post-infection, 24 Hrs", "result": 100, "unit": "%"},
      {"measurement": "Survival (%)", "setting": "[2]; 6x, total dose 4.8 mg/mouse, first dose 10 minutes post-infection, 48 Hrs", "result": 100, "unit": "%"},
      {"measurement": "Survival (%)", "setting": "[2]; 6x, total dose 4.8 mg/mouse, first dose 10 minutes post-infection, 72 Hrs", "result": 100, "unit": "%"}
    ]},
    {"molecule": "CN1CCC(C(=O)NC(=O)c2c(F)ccc(OCc3nc4cc(C(F)(F)F)cnc4s3)c2F)CC1", "note": "[Example 44]", "values": [
      {"measurement": "MIC", "setting": "MSSA", "result": 0.5, "unit": "µg/mL"},
      {"measurement": "MIC", "setting": "MRSA", "result": 2, "unit": "µg/mL"},
      {"measurement": "Survival (%)", "setting": "[1]; i.v., 1x, total dose 0.9 mg/mouse, 24 Hrs", "result": 83.3, "unit": "%"},
      {"measurement": "Survival (%)", "setting": "[1]; i.v., 1x, total dose 0.9 mg/mouse, 48 Hrs", "result": 83.3, "unit": "%"},
      {"measurement": "Survival (%)", "setting": "[1]; i.v., 1x, total dose 0.9 mg/mouse, 72 Hrs", "result": 83.3, "unit": "%"},
      {"measurement": "Survival (%)", "setting": "[1]; i.v., 2x, total dose 1.8 mg/mouse, 24 Hrs", "result": 100, "unit": "%"},
      {"measurement": "Survival (%)", "setting": "[1]; i.v., 2x, total dose 1.8 mg/mouse, 48 Hrs", "result": 100, "unit": "%"},
      {"measurement": "Survival (%)", "setting": "[1]; i.v., 2x, total dose 1.8 mg/mouse, 72 Hrs", "result": 100, "unit": "%"},
      {"measurement": "Survival (%)", "setting": "[1]; p.o., 1x, total dose 0.8 mg/mouse, 24 Hrs", "result": 50, "unit": "%"},
      {"measurement": "Survival (%)", "setting": "[1]; p.o., 1x, total dose 0.8 mg/mouse, 48 Hrs", "result": 50, "unit": "%"},
      {"measurement": "Survival (%)", "setting": "[1]; p.o., 1x, total dose 0.8 mg/mouse, 72 Hrs", "result": 50, "unit": "%"},
      {"measurement": "Survival (%)", "setting": "[1]; p.o., 2x, total dose 1.6 mg/mouse, 24 Hrs", "result": 100, "unit": "%"},
      {"measurement": "Survival (%)", "setting": "[1]; p.o., 2x, total dose 1.6 mg/mouse, 48 Hrs", "result": 100, "unit": "%"},
      {"measurement": "Survival (%)", "setting": "[1]; p.o., 2x, total dose 1.6 mg/mouse, 72 Hrs", "result": 100, "unit": "%"},
      {"measurement": "Survival (%)", "setting": "[1]; p.o., 3x, total dose 2.4 mg/mouse, 24 Hrs", "result": 100, "unit": "%"},
      {"measurement": "Survival (%)", "setting": "[1]; p.o., 3x, total dose 2.4 mg/mouse, 48 Hrs", "result": 100, "unit": "%"},
      {"measurement": "Survival (%)", "setting": "[1]; p.o., 3x, total dose 2.4 mg/mouse, 72 Hrs", "result": 100, "unit": "%"},
      {"measurement": "Survival (%)", "setting": "[1]; p.o., 4x, total dose 3.2 mg/mouse, n/group 4, 24 Hrs", "result": 100, "unit": "%"},
      {"measurement": "Survival (%)", "setting": "[1]; p.o., 4x, total dose 3.2 mg/mouse, n/group 4, 48 Hrs", "result": 100, "unit": "%"},
      {"measurement": "Survival (%)", "setting": "[1]; p.o., 4x, total dose 3.2 mg/mouse, n/group 4, 72 Hrs", "result": 100, "unit": "%"}
    ]}
  ]
}
